Source: US8426179B2, “Synthetic peptide and peptide conjugates and related tissue coupling methods via transglutaminase enzyme” (priority 2007, dated 2013)
Entries after “also recorded” stand apart in the source; their conditions may differ. Residues, ends and D or L forms follow the SMILES beside them. No end group written: not given here. *: point of attachment. X1 = C[C@]12CCC(=O)C=C1CC[C@@H]1[C@@H]2[C@@H](O)C[C@@]2(C)[C@H]1CC[C@]2(O)C(=O)COC(=O)CCC(=O)*

Legend:
osteopontin = target: T1, osteopontin (Homo sapiens, UniProt P10451); experiment: Reaction of peptide conjugates with cartilage ECM protein in solution via tTG; assay type: biochemical; settings: for reactivity / normalized band intensity on western blot: osteopontin, 500 μM conjugate, 0.05 U/mL tTG, 30 min at 37° C.; for number of conjugate molecules coupled per protein (MALDI-TOF): osteopontin with tTG
T1 construct: purchased R&D Systems, Minneapolis, Minn
T1 sequence (P10451 17-314, species assumed): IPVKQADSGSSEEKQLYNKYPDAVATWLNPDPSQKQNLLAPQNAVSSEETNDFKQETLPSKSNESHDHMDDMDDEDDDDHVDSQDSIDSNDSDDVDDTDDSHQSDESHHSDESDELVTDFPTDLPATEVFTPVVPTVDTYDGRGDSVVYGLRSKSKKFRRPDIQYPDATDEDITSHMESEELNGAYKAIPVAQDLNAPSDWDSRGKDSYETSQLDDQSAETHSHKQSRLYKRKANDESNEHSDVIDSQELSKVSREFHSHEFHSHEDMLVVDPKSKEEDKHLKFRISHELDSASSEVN
Protocol: (§1) Fibronectin, collagen II, osteonectin, and osteopontin were separately combined at 0.1% (w/v) in 100 mM Tris and 5 mM CaCl2 with 500 μM peptide-PEG conjugates and 0.05 U/mL tTG. The reaction was allowed to proceed for 30 min at 37° C. and then stopped with the addition of iodoacetamide (1 mM final concentration). Control experiments without transglutaminse were also performed. The proteins were then separated using SDS-PAGE with either 7.5% fibronectin and collagen II) or 10% (osteonectin and osteopontin) gels, transferred to PVDF membranes which were then blocked with 2% BSA in TBS with 0.1% Tween (TBS-T). The modified proteins were probed with peroxidase conjugated ExtrAvidin. Detection of bound ExtrAvidin was accomplished using ECL Plus Western Blotting Detection Reagents and imaged on a Storm 860 imager (GE Healthcare Biosciences, Piscataway, N.J.). Band intensities were measured using ImageQuant (GE Healthcare Biosciences). Statistical analysis was performed using one-way ANOVA and Tukey's post-hoc test with 95% confidence intervals with SPSS (SPSS, Chicago, Ill.). Reactions of B72Q and B72K with osteonectin and osteopontin were dialyzed against 10 mM acetic acid and then analyzed by MALDI-TOF MS.

collagen II = target: T2, collagen II (Homo sapiens, UniProt P02458); experiment: as above; assay type: biochemical; settings: type II collagen, 500 μM conjugate, 0.05 U/mL tTG, 30 min at 37° C.
T2 construct: isolated by pepsin digestion, which yields primarily the triple helical region of collagen II; purchased Chondrex, Redmond, Wash
T2 sequence (P02458 201-1214 limits assumed): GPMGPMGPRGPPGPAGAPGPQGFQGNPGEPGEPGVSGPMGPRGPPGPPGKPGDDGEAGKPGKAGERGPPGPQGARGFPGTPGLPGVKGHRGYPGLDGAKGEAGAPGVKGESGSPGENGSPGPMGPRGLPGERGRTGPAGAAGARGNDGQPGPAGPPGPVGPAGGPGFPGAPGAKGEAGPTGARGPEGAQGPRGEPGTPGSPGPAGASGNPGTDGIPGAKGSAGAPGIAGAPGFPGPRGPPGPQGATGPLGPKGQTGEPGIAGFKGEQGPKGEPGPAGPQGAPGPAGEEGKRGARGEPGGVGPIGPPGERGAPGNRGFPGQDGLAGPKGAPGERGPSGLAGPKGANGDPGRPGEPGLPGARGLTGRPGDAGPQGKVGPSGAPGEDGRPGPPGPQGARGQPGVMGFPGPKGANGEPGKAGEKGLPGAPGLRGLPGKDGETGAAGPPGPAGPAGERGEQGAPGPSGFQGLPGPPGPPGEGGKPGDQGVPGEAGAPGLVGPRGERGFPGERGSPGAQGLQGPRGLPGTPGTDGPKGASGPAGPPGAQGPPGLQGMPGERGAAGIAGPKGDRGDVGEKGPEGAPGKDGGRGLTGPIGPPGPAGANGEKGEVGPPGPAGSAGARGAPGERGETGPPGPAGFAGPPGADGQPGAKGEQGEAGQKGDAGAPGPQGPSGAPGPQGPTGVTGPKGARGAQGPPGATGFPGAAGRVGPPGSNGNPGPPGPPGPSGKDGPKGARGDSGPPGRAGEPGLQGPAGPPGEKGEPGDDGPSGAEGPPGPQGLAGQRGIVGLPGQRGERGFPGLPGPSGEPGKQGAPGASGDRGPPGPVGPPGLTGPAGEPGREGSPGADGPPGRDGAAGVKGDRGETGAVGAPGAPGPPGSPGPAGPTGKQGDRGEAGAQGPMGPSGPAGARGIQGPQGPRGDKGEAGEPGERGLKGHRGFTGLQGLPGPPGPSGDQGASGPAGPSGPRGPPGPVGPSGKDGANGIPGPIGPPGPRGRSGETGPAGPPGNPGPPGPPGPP
Protocol: as §1

Fibronectin = target: T3, Fibronectin (Homo sapiens, UniProt P02751); experiment: as above; assay type: biochemical; settings: 500 μM conjugate, 0.05 U/mL tTG, 30 min at 37° C.
T3 construct: purchased Sigma, St. Louis, Mo
T3 sequence (P02751 32-2477, species assumed): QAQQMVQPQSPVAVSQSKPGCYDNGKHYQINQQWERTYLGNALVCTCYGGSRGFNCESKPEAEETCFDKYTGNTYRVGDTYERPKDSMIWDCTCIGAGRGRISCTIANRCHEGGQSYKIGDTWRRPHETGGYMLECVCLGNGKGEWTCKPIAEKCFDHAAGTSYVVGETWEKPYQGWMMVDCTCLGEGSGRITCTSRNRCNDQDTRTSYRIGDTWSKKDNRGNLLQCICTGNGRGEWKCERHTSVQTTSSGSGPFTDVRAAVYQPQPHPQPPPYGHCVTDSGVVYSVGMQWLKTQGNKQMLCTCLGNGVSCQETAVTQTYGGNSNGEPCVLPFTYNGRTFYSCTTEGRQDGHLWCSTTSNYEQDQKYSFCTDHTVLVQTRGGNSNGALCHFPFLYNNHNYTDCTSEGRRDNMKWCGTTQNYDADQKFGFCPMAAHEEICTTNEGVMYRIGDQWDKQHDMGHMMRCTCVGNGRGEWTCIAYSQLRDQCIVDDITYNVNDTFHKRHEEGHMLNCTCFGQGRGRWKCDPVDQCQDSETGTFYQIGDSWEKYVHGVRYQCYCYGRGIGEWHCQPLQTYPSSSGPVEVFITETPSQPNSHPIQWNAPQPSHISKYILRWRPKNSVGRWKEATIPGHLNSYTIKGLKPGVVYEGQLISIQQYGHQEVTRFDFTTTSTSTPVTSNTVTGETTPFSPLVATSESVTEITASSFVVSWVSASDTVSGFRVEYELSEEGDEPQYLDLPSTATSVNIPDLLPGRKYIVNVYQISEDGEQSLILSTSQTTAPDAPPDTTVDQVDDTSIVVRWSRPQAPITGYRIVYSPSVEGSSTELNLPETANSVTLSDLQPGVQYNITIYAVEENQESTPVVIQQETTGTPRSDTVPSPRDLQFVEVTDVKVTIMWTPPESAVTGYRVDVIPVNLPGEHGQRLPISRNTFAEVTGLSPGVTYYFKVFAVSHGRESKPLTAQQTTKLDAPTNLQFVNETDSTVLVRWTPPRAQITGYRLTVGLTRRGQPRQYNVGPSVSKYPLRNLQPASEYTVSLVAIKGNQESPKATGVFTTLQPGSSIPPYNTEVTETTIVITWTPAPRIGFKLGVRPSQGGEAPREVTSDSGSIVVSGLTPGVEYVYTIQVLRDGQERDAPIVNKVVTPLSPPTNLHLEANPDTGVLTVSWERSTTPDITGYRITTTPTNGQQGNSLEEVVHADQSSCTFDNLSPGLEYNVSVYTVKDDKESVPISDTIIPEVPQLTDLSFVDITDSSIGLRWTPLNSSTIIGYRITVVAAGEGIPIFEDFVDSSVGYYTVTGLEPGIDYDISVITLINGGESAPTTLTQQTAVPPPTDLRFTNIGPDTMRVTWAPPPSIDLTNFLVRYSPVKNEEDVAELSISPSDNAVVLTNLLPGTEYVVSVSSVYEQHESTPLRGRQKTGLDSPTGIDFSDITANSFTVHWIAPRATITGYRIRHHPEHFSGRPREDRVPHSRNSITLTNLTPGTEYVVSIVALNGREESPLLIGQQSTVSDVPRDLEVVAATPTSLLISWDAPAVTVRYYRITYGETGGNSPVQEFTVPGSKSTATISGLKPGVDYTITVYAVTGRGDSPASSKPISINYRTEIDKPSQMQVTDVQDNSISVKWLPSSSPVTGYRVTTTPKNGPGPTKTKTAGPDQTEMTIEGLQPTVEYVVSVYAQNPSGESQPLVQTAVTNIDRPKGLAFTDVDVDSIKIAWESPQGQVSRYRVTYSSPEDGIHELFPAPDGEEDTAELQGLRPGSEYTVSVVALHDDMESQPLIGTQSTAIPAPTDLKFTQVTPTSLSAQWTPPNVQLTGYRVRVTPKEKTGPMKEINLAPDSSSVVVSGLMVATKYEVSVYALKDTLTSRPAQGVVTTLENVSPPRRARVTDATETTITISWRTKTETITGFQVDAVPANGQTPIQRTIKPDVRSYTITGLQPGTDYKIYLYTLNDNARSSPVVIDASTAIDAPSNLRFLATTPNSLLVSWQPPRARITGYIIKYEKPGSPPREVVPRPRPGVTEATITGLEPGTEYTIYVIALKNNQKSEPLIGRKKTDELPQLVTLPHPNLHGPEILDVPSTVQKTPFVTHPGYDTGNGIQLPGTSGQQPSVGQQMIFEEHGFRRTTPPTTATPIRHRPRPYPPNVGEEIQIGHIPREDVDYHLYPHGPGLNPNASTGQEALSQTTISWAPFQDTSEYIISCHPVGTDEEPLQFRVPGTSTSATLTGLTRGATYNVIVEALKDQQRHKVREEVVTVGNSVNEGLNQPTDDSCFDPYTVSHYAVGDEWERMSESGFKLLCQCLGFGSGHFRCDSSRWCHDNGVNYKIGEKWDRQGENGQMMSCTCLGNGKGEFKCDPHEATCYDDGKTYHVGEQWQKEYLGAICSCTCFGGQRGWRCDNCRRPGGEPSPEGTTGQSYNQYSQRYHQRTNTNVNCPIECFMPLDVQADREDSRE
Protocol: as §1

osteonectin = target: T4, osteonectin (Homo sapiens, UniProt P09486); experiment: as above; assay type: biochemical; settings: for reactivity / normalized band intensity on western blot: osteonectin, 500 μM conjugate, 0.05 U/mL tTG, 30 min at 37° C.; for number of conjugate molecules coupled per protein (MALDI-TOF): osteonectin with tTG
T4 construct: purchased Biodesign, Saco, Me
T4 sequence (P09486 18-303): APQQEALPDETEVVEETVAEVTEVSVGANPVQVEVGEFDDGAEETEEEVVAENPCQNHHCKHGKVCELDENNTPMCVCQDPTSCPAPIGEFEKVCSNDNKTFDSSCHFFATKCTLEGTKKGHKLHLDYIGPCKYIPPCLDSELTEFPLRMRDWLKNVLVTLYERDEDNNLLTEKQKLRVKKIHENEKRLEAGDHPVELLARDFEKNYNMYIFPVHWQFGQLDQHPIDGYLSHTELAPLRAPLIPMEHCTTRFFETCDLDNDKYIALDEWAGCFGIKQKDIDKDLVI
Protocol: as §1

cartilage sections = experiment: Coupling of peptide conjugates to cartilage sections via tTG, fluorescein anti-biotin staining; assay type: biochemical, bovine
Protocol: Partial depolymerization of glycosaminoglycans in the tissue was accomplished by digesting with chondroitinase ABC at 40 mU/mL in 50 mM Tris, 70 mM sodium acetate and 0.01% bovine serum albumin (BSA) at pH 8 for 30 minutes at 37° C. Samples were then rinsed 3 times with TBS and blocked with 1% BSA in TBS for one hour at room temperature. The tTG reaction conditions used were similar to a previously described method. (See, Aeschlimann D, Wetterwald A, Fleisch H, and Paulsson M. Expression of tissue transglutaminase in skeletal tissues correlates with events of terminal differentiation of chondrocytes. Journal of Cell Biology 1993; 120: 1461-1470.) The cartilage sections were incubated in 500 μL of 50 μM peptide or peptide-PEG conjugate, 0.5 U/mL tTG, 5 mM CaCl2, 2.5 mM dithiothreitol and 100 mM Tris, at pH 8.3 for 30 min at 37° C. Control experiments were performed in the absence of tTG. After completion of the tTG reaction, the solution was removed and samples were rinsed 3 times with 1% BSA in TBS for 5 minutes each. The cartilage sections were then incubated with fluorescein conjugated anti-biotin antibody at 10 μg/mL in 1% BSA in TBS for 2 hours at room temperature. Samples were rinsed 4 times with TBS for 5 minutes each, followed by blocking with 10% donkey serum for 1 hour and incubation with rabbit anti-collagen II antibody in TBS containing 10% donkey serum for 1 hour. The samples were rinsed 3 times with 10% donkey serum in TBS and then incubated with Texas Red conjugated donkey anti-rabbit antibody. Samples were rinsed again with TBS and then imaged using a Leica epifluorescent microscope (λex=495 nm, λem=520 for fluorescein and λex=596 nm, λem=620 for Texas Red) and a SPOT RT digital camera (Diagnostic Instruments, Sterling Heights, Mich.).
Images were analyzed using Metamorph image analysis software (Molecular Devices, Sunnyvale, Calif.). Fluorescein fluorescence was measured at three randomly selected areas of the middle zone on each cartilage section image and then averaged. A similar procedure was utilized to determine Texas Red fluorescence. The fluorescein fluorescence intensity was then normalized to the fluorescence of the Texas Red for each cartilage section image in order to account for potential ECM differences between sections. Finally, the average green fluorescence for each peptide-PEG conjugate was then normalized by dividing by the red fluorescence.

cartilage = settings: for average depth of peptide coupling: with tTG, chondroitinase ABC digested cartilage, along the cut edge
Protocol: For the coupling of peptide conjugates to cartilage sections, osteochondral plugs were extracted from adult bovine metacarpophalangeal joints using a hole punch with a diameter of 0.793 cm. Samples were then frozen in tissue freezing media and stored at −80° C. until use. Vertical sections (25 μm), which included the articular surface as well as a portion of the underlying bone, were cut using a cryostat (Microm HM505N, Carl Zeiss) and the freezing media was removed with 3 washes of Tris buffered saline (TBS) (50 mM Tris, 100 mM NaCl) at pH 7.4. For the penetration studies, four millimeter by two millimeter rectangular samples of cartilage were excised from adult bovine metacarpophalangeal joint to a depth of 200-250 microns from the articular surface. Samples were frozen as described earlier for later use, at which time they were thawed and rinsed in TBS.
Four millimeter by two millimeter rectangular samples of cartilage were thawed and rinsed, after which the chondroitinase ABC digestion and tTG reactions with the peptide and peptide-PEG conjugates were performed as stated above. […] The samples were then frozen in tissue freezing media followed by cutting using a cryostat. Twenty micron thick vertical sections were collected from each cartilage piece, rinsed in TBS, blocked with 1% BSA TBS containing 0.1% Tween (TBST), and incubated with peroxidase conjugated anti-biotin antibody at 5 μg/mL in 1% BSA in TBS-T for 2 hours at room temperature. Samples were rinsed 4 times with TBS and 4 times with distilled water. Finally, the anti-biotin antibody was detected using a DAB kit which contains the peroxidase substrate 3,3′-diaminobenzidine yielding a brown color. Samples were imaged using a Leica microscope (brightfield) and a SPOT RT digital camera.
Adobe Photoshop (Adobe, Inc, San Jose, Calif.) was used to measure the depth to which the peptide and peptide-PEG conjugates were detected. The depth of staining into the cartilage along the cut surface perpendicular to the articular surface was measured at distances of 60, 120 and 180 microns from the articular surface for each sample. The average depth of staining for each sample was calculated from these three measurements. For each peptide and peptide-PEG conjugate, an overall mean depth of staining was determined from the measurements of three samples.
In a separate series of experiments, 2 mm by 4 mm by 200-250 μm pieces of cartilage were incubated with each peptide-PEG conjugate and tTG. At the completion of the reaction, the cartilage pieces were frozen and sectioned and the coupled peptide conjugates were detected with a perioxidase anti-biotin antibody. The bound antibody was detected with DAB reagent which forms a brown precipitate in the presence of perioxidase. […] The depth of peptide penetration and coupling was measured along the cut edge at 60, 120, and 180 μm from the articular surface as shown schematically in FIG. 6.

[1] = test system: articular surface of cartilage; experiment: Coupling of hydrocortisone prodrugs to the articular surface of cartilage via tTG; assay type: biochemical, bovine; settings: in the absence of tTG
Protocol: Modified tissue samples were immersed in tissue freezing media and frozen at −80° C. until use. Tissue slices (25 μm thick) were cut using a cryostat (Microm HM505N, Carl Zeiss) and the freezing media was removed with 3 washes of Buffer 1. Blocking was performed with 4% goat serum in Buffer 1 (blocking buffer) for 1 hour at room temperature. The tissue sections were then incubated with 10 μg/mL mouse anti-hydrocortisone antibody for 1.5 h in the blocking buffer at room temperature, rinsed 3 times with Buffer 1 for 5 minutes each, and then incubated with fluorescein conjugated goat anti-mouse antibody (1/200) in blocking buffer for 1 hour. Samples were rinsed again with Buffer 1 and then imaged using a Leica epifluorescent microscope (λex=495 nm, λem=520 nm for fluorescein) and a SPOT RT digital camera (Diagnostic Instruments, Sterling Heights, Mich.).

[2] = Hydrolysis of the hydrocortisone prodrug in normal synovial fluid; assay type: in vitro ADME, bovine
Protocol: A 30 μL portion of each sample was collected at 0.5, 1, 2, 4, 7, 24, and 48 hours and added to a 60 μL mixture of water:acetonitrile:TFA (79:20:1) to prevent further hydrolysis. This solution also contained 2 mM 6α-methyl prednisolone as an internal standard. The samples were then stored at −20° C. until analyzed with RP-HPLC and eluted with a linear gradient of 24-55% acetonitrile in water with 0.1% TFA. The amount of hydrocortisone hydrolyzed from the prodrug was determined by comparing its peak area to that of 6α-methyl prednisolone. The T50% of the prodrug was calculated from 0.693/S, where S is the mean slope giving the best correlation coefficient in the linear part of the logarithmic curve of unhydrolyzed prodrug (1-[hydrocortisone]) versus time. […] Thirty microliter samples were collected at 10, 20, 30, and 60 minutes and analyzed as previously described.

[3] = Release of hydrocortisone from coupled prodrugs on the articular surface of cartilage
Protocol: After the overnight rinse in Buffer 2 with protease inhibitors and the subsequent washes with Buffer 1, each sample was incubated in 100 μL of sterile Buffer 1, normal bovine synovial fluid, or human osteoarthritic synovial fluid at 37° C. […] At the end of the experiment, the samples were digested and analyzed as previously described.

[4] = test system: Fresh articular cartilage; settings: in the presence of enzyme
tTG = target: T5, tTG (UniProt P08587); settings: reactivity with the enzyme (tTG); cited from earlier work
T5 sequence (P08587 1-690): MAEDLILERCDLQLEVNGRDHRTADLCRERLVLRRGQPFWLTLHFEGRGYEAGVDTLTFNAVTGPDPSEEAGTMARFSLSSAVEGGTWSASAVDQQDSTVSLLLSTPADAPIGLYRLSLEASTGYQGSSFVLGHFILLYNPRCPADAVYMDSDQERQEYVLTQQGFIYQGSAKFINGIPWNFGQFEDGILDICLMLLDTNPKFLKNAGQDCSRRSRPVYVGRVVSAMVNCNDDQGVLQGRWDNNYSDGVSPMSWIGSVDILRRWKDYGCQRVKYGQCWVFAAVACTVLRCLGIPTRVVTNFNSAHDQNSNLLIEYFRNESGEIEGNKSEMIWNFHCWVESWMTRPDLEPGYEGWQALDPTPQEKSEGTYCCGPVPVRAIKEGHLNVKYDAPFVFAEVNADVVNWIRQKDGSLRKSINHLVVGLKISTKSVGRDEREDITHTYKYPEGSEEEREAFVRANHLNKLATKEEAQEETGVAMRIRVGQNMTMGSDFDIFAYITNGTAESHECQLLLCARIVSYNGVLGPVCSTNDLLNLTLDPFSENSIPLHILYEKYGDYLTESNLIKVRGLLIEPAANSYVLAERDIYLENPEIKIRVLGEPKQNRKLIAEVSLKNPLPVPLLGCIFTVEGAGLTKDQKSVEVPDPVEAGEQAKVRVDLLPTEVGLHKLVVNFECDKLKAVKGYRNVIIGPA

[5] = in the presence of tTG, 50 μM conjugate, 0.5 U/mL tTG, 30 min at 37° C.

| Compound | reactivity / normalized band intensity on western blot (osteopontin) | reactivity / normalized band intensity on western blot (collagen II) | reactivity / normalized band intensity on western blot (Fibronectin) | reactivity / normalized band intensity on western blot (osteonectin) | coupling to cartilage (anti-biotin fluorescence) (cartilage sections; [5]) | average depth of peptide coupling (cartilage) [μm] | other results |
| --- | --- | --- | --- | --- | --- | --- | --- |
| Biotin-(EO)2-GNNNLG-NH2 [B2N] | did not demonstrate crosslinking | did not demonstrate crosslinking | did not demonstrate crosslinking | did not demonstrate crosslinking | no coupling was detected | – | – |
| Biotin-PEG-GQQQLG-NH2 [B72Q] | – | less reactive toward collagen II in solution | – | – | enzymatically crosslinked to the cartilage sections | 8.6 | number of conjugate molecules coupled per protein (MALDI-TOF) (osteopontin): up to two; number of conjugate molecules coupled per protein (MALDI-TOF) (osteonectin): up to 3 |
| Biotin-PEG-FKG-NH2 [B72K] | – | statistically greater than for B2Q or B72Q; also recorded: reactive toward collagen II | statistically greater than for B2Q or B72Q | statistically greater than for B2Q or B72Q | enzymatically crosslinked to the cartilage sections | 9.8 | number of conjugate molecules coupled per protein (MALDI-TOF) (osteopontin): one; number of conjugate molecules coupled per protein (MALDI-TOF) (osteonectin): up to 4 |
| Biotin-(EO)2-FKG-NH2 [B2K] | – | statistically greater than for B2Q or B72Q; also recorded: reactive toward collagen II | statistically greater than for B2Q or B72Q | statistically greater than for B2Q or B72Q | enzymatically crosslinked to the cartilage sections | 13 | depth of staining (cartilage; undigested cartilage tissue treated with tTG): 5.8 microns; coupling to cartilage (anti-biotin fluorescence) (cartilage sections; in the absence of tTG): no observed fluorescence |
| C[C@]12CCC(=O)C=C1CC[C@@H]1[C@@H]2[C@@H](O)C[C@@]2(C)[C@H]1CC[C@]2(O)C(=O)CO [hydrocortisone] | – | – | – | – | – | – | immunofluorescence on articular surface (anti-hydrocortisone) ([1]; 1.0 mM): no immunofluorescence was detected; nonspecific adsorption, hydrocortisone detected on the tissue surface [1]: minimal amount of hydrocortisone detected |
| Biotin-(EO)2-FOG-NH2 [B2O] | did not demonstrate crosslinking | did not demonstrate crosslinking | did not demonstrate crosslinking | did not demonstrate crosslinking | no coupling was detected | – | – |
| C[C@]12CCC(=O)C=C1CC[C@@H]1[C@@H]2[C@@H](O)C[C@@]2(C)[C@H]1CC[C@]2(O)C(=O)COC(=O)CCC(=O)NCC(=O)N[C@@H](Cc1ccccc1)C(=O)N[C@@H](CCCCN)C(=O)NCC(=O)O [TRIP-C, Hydrocortisone-GFKG prodrug] (X1-GFKG-OH) | – | – | – | – | – | – | T50% ([2]; 1.0 mM, 75% normal synovial fluid in Buffer 1, 37° C.): 11.1 min; times more rapid hydrolysis in synovial fluid than in Buffer 1 ([2]; 37° C.): 4; hydrocortisone released from tissue-bound prodrug ([3]; 4 to 48 hours, 37° C., Buffer 1, bovine synovial fluid, human OA synovial fluid): statistical increase in the amount of hydrocortisone released; hydrocortisone hydrolysis from coupled prodrug, TRIP-C compared with TRIP-PC ([3]; any of the fluids utilized): no difference in hydrocortisone hydrolysis |
| Biotin-FKG-HA | – | – | – | – | – | – | anti-biotin antibody staining of tissue surface [4]: intense staining |
| FKG | – | – | – | – | bind to cartilage surfaces via tTG | – | specificity (tTG): 560 mM⁻¹ min⁻¹ |
| Biotin-(EO)2-GQQQLG-NH2 [B2Q] | significantly greater normalized band intensity than the B2K and B72K | less reactive toward collagen II in solution | – | – | enzymatically crosslinked to the cartilage sections | 9.8 | coupling to cartilage (anti-biotin fluorescence) (cartilage sections; in the absence of tTG): no observed fluorescence |
| GQQQLG (GQQQLG-NH2) [glutamine (acyl donor) peptide substrate of tTG] | – | – | – | – | bind to cartilage surfaces via tTG | – | specificity (tTG): 34.1 mM⁻¹ min⁻¹ |
| Biotin-PEG-G-NH2 [B72] | did not demonstrate crosslinking | did not demonstrate crosslinking | did not demonstrate crosslinking | did not demonstrate crosslinking | lack of fluorescence | – | – |
